Experimental data from ChEMBL document CHEMBL3046310, “Synthesis and antimicrobial screening of novel series of imidazo-[1,2-a]pyridine derivatives” (2012).
Values after ≈ are worked out from the molar mass of the structure shown.

Key:
Type in all cases: functional
Aspergillus niger = test: Antimicrobial activity against Aspergillus niger MTCC 282 after 72 hr by serial broth dilution method; settings: MTCC 282, 72 h
Aspergillus clavatus = test: Antimicrobial activity against Aspergillus clavatus MTCC 1323 after 72 hr by serial broth dilution method; settings: MTCC 1323, 72 h
Staphylococcus aureus = test: Antimicrobial activity against Staphylococcus aureus MTCC 96 after 24 hr by serial broth dilution method; settings: MTCC 96, 24 h
Escherichia coli = test: Antimicrobial activity against Escherichia coli MTCC 443 after 24 hr by serial broth dilution method; settings: MTCC 443, 24 h
Streptococcus pyogenes = test: Antimicrobial activity against Streptococcus pyogenes MTCC 442 after 24 hr by serial broth dilution method; settings: MTCC 442, 24 h
Candida albicans = test: Antimicrobial activity against Candida albicans MTCC 227 after 72 hr by serial broth dilution method; settings: MTCC 227, 72 h
Pseudomonas aeruginosa = test: Antimicrobial activity against Pseudomonas aeruginosa MTCC 1688 after 24 hr by serial broth dilution method; settings: MTCC 1688, 24 h

MIC (Aspergillus niger) [µg/mL]	MIC (Aspergillus clavatus) [µg/mL]	MIC (Staphylococcus aureus) [µg/mL]	MIC (Escherichia coli) [µg/mL]	MIC (Streptococcus pyogenes) [µg/mL]	MIC (Candida albicans) [µg/mL]	MIC (Pseudomonas aeruginosa) [µg/mL]	SMILES
250 (≈ 830 µM)	250 (≈ 830 µM)	500 (≈ 1660 µM)	50 (≈ 166 µM)	500 (≈ 1660 µM)	125 (≈ 415 µM)	250 (≈ 830 µM)	Cc1ccn2c(CN(C)C)c(-c3cccc(F)c3F)nc2c1
100 (≈ 334 µM)	100 (≈ 334 µM)	100 (≈ 334 µM)	100 (≈ 334 µM)	500 (≈ 1670 µM)	250 (≈ 834 µM)	50 (≈ 167 µM)	Cc1ccn2c(CN(C)C)c(-c3cccc(Cl)c3)nc2c1
1000 (≈ 3150 µM)	1000 (≈ 3150 µM)	50 (≈ 157 µM)	50 (≈ 157 µM)	50 (≈ 157 µM)	250 (≈ 787 µM)	100 (≈ 315 µM)	Cc1ccn2c(CN(C)C)c(-c3ccc(F)c(Cl)c3)nc2c1
1000 (≈ 3360 µM)	1000 (≈ 3360 µM)	500 (≈ 1680 µM)	500 (≈ 1680 µM)	250 (≈ 841 µM)	1000 (≈ 3360 µM)	500 (≈ 1680 µM)	Cc1ccn2c(CN(C)C)c(-c3ccc(O)cc3O)nc2c1
50 (≈ 145 µM)	100 (≈ 290 µM)	500 (≈ 1450 µM)	100 (≈ 290 µM)	250 (≈ 726 µM)	500 (≈ 1450 µM)	100 (≈ 290 µM)	Cc1ccn2c(CN(C)C)c(-c3ccccc3Br)nc2c1
100 (≈ 283 µM)	100 (≈ 283 µM)	–	–	–	500 (≈ 1420 µM)	–	COC1=CC(=O)C[C@@H](C)[C@]12Oc1c(Cl)c(OC)cc(OC)c1C2=O [GRISEOFULVIN]
50 (≈ 166 µM)	100 (≈ 332 µM)	50 (≈ 166 µM)	100 (≈ 332 µM)	250 (≈ 830 µM)	500 (≈ 1660 µM)	50 (≈ 166 µM)	Cc1ccn2c(CN(C)C)c(-c3ccc(F)cc3F)nc2c1
100 (≈ 276 µM)	25 (≈ 69 µM)	250 (≈ 690 µM)	500 (≈ 1380 µM)	25 (≈ 69 µM)	1000 (≈ 2760 µM)	500 (≈ 1380 µM)	Cc1ccn2c(CN(C)C)c(-c3cccc(Br)c3F)nc2c1
1000 (≈ 3550 µM)	1000 (≈ 3550 µM)	500 (≈ 1780 µM)	500 (≈ 1780 µM)	500 (≈ 1780 µM)	1000 (≈ 3550 µM)	500 (≈ 1780 µM)	Cc1ccn2c(CN(C)C)c(-c3ccccc3O)nc2c1
100 (≈ 332 µM)	500 (≈ 1660 µM)	250 (≈ 830 µM)	25 (≈ 83 µM)	100 (≈ 332 µM)	1000 (≈ 3320 µM)	25 (≈ 83 µM)	Cc1ccn2c(CN(C)C)c(-c3c(F)cccc3F)nc2c1
1000 (≈ 3060 µM)	1000 (≈ 3060 µM)	500 (≈ 1530 µM)	500 (≈ 1530 µM)	1000 (≈ 3060 µM)	1000 (≈ 3060 µM)	250 (≈ 766 µM)	Cc1ccn2c(CN(C)C)c(-c3ccc(O)c([N+](=O)[O-])c3)nc2c1
500 (≈ 1280 µM)	500 (≈ 1280 µM)	500 (≈ 1280 µM)	100 (≈ 257 µM)	100 (≈ 257 µM)	1000 (≈ 2570 µM)	100 (≈ 257 µM)	Cc1ccn2c(CN(C)C)c(-c3ccc([N+](=O)[O-])cc3Br)nc2c1
500 (≈ 1460 µM)	500 (≈ 1460 µM)	500 (≈ 1460 µM)	500 (≈ 1460 µM)	250 (≈ 730 µM)	500 (≈ 1460 µM)	250 (≈ 730 µM)	Cc1ccn2c(CN(C)C)c(-c3cc([N+](=O)[O-])c(O)cc3O)nc2c1

SMILES	MIC (Aspergillus niger) [µg/mL]	MIC (Aspergillus clavatus) [µg/mL]	MIC (Staphylococcus aureus) [µg/mL]	MIC (Escherichia coli) [µg/mL]	MIC (Streptococcus pyogenes) [µg/mL]	MIC (Candida albicans) [µg/mL]	MIC (Pseudomonas aeruginosa) [µg/mL]
CC1(C)S[C@@H]2[C@H](NC(=O)[C@H](N)c3ccccc3)C(=O)N2[C@H]1C(=O)O [AMPICILLIN]	–	–	250 (≈ 715 µM)	100 (≈ 286 µM)	100 (≈ 286 µM)	–	100 (≈ 286 µM)
